Data as given in PubChem BioAssay AID2060910 (Molecular Pharmacology Branch, DTP, NCI, 2025).
Values joined by “and” are separate entries in the source; they are usually repeats but may differ in a detail not shown here. Equal values may be shown once.

Test system: 242566-281-R-J2-PDC complex spheroid viability
Assay: Anticancer human tumor 242566-281-R-J2-PDC patient-derived pancreatic carcinoma cell line growth inhibition [RAS]
Conditions: for viability, T/C: stronger effect = lower value; active means viability on the fitted dose curve at most 10% of control; inactive means the rest
In short: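 Multi-cell-type spheroids: tumor cells plus HUVEC endothelial cells and mesenchymal stem cells. RAS-pathway inhibitors were combined with targeted agents, each dosed in half-log steps down from clinical Cmax, or from 10 microM when Cmax was unknown.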
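Further: spheroids exposed to compound for 7 days before readout.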
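Wherever viability, T/C is given: 100% = DMSO vehicle control wells.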

CCn1c(-c2cc(N3CCN(C)CC3)cnc2C(C)OC)c2c3cc(ccc31)-c1csc(n1)CC(NC(=O)C1CC1C)C(=O)N1CCCC(N1)C(=O)OCC(C)(C)C2 (centres undefined)
9.34 nM [middle of 8 runs]: IC50 (compound alone, run of 07/09/2024)
inactive: viability, T/C (compound 0.000949 µM) 93.7% [middle of 8 runs] | viability, T/C (compound 0.003 µM) 76.4% [middle of 8 runs] | viability, T/C (compound 0.00949 µM) 49% [middle of 8 runs] | viability, T/C (compound 0.03 µM) 31.3% [middle of 8 runs] | viability, T/C (compound 0.0949 µM) 23.8% [middle of 8 runs] | viability, T/C (compound 0.3 µM) 21.6% [middle of 8 runs]

Nc1ccn(C2OC(CO)C(O)C2(F)F)c(=O)n1 (centres undefined)
inactive: viability, T/C (compound 0.00316 µM) 102% [middle of 4 runs] | viability, T/C (compound 0.01 µM) 103% [middle of 4 runs] | viability, T/C (compound 0.0316 µM) 74.9% [middle of 4 runs] | viability, T/C (compound 0.1 µM) 49.9% [middle of 4 runs] | viability, T/C (compound 0.316 µM) 23.4% [middle of 4 runs] | viability, T/C (compound 1 µM) 15.6% [middle of 4 runs]
89.6 nM [middle of 4 runs]: IC50 (curve of compound)

CC(=O)OC12COC1CC(O)C1(C)C(=O)C(O)C3=C(C)C(OC(=O)C(O)C(NC(=O)OC(C)(C)C)c4ccccc4)CC(O)(C(OC(=O)c4ccccc4)C21)C3(C)C (centres undefined) + C=CC(=O)N1CCN(c2nc(OCC3CCCN3C)nc3c(F)c(-c4nc(N)cc(C)c4C(F)(F)F)c(Cl)cc23)C(C)C1
< 0.0316 µM: IC50 (curve of first compound, second compound 0.00316 µM) | IC50 (curve of first compound, second compound 1 µM)
> 10 µM: IC50 (curve of first compound, second compound 0.1 µM) | IC50 (curve of first compound, second compound 0.316 µM)
0.237 µM: IC50 (curve of first compound, second compound 0.01 µM)
inactive: viability, T/C (second compound 0.00316 µM, first compound 0.0316 µM) 52.6% | viability, T/C (second compound 0.00316 µM, first compound 0.1 µM) 53.8% | viability, T/C (second compound 0.00316 µM, first compound 0.316 µM) 50.5% | viability, T/C (second compound 0.00316 µM, first compound 1 µM) 35.5% | viability, T/C (second compound 0.00316 µM, first compound 3.16 µM) 54.5% | viability, T/C (second compound 0.00316 µM, first compound 10 µM) 69.3% | viability, T/C (second compound 0.01 µM, first compound 0.0316 µM) 71.5% | viability, T/C (second compound 0.01 µM, first compound 0.1 µM) 53% | viability, T/C (second compound 0.01 µM, first compound 0.316 µM) 42.2% | viability, T/C (second compound 0.01 µM, first compound 1 µM) 41.8% | viability, T/C (second compound 0.01 µM, first compound 3.16 µM) 45.2% | viability, T/C (second compound 0.01 µM, first compound 10 µM) 66.8% | viability, T/C (second compound 0.0316 µM, first compound 0.0316 µM) 80.4% | viability, T/C (second compound 0.0316 µM, first compound 0.1 µM) 51.9% | viability, T/C (second compound 0.0316 µM, first compound 0.316 µM) 39.3% | viability, T/C (second compound 0.0316 µM, first compound 1 µM) 35.6% | viability, T/C (second compound 0.0316 µM, first compound 3.16 µM) 48.5% | viability, T/C (second compound 0.0316 µM, first compound 10 µM) 66.5% | viability, T/C (second compound 0.1 µM, first compound 0.0316 µM) 61.1% | viability, T/C (second compound 0.1 µM, first compound 0.1 µM) 51.4% | viability, T/C (second compound 0.1 µM, first compound 0.316 µM) 47.6% | viability, T/C (second compound 0.1 µM, first compound 1 µM) 37.9% | viability, T/C (second compound 0.1 µM, first compound 3.16 µM) 46.5% | viability, T/C (second compound 0.1 µM, first compound 10 µM) 68.2% | viability, T/C (second compound 0.316 µM, first compound 0.0316 µM) 64.9% | viability, T/C (second compound 0.316 µM, first compound 0.1 µM) 52.1% | viability, T/C (second compound 0.316 µM, first compound 0.316 µM) 37% | viability, T/C (second compound 0.316 µM, first compound 1 µM) 49.3% | viability, T/C (second compound 0.316 µM, first compound 3.16 µM) 55.7% | viability, T/C (second compound 0.316 µM, first compound 10 µM) 71.4% | viability, T/C (second compound 1 µM, first compound 0.0316 µM) 52.7% | viability, T/C (second compound 1 µM, first compound 0.1 µM) 51.1% | viability, T/C (second compound 1 µM, first compound 0.316 µM) 44.8% | viability, T/C (second compound 1 µM, first compound 1 µM) 42.8% | viability, T/C (second compound 1 µM, first compound 3.16 µM) 50.9% | viability, T/C (second compound 1 µM, first compound 10 µM) 65.7%
0.122 µM: IC50 (curve of first compound, second compound 0.0316 µM)

CC1(O)CCCC1n1c(=O)c(C(F)F)cc2cnc(NC3CCN(S(C)(=O)=O)CC3)nc21 (centres undefined)
inactive: viability, T/C (compound 1 µM) 106% [middle of 4 runs] | viability, T/C (compound 3.16 µM) 105% and 103% (2×) and 123%
> 10 µM and 7.54 µM and 8.69 µM: IC50 (curve of compound)
